Measurements taken from patent publication US20090068207A1, “Compositions Containing Beta 2-Glycoprotein I-Derived Peptides for the Prevention and/or Treatment of Vascular Disease” (Vascular Biogenics Ltd., priority 2005, published 2009).
Where “and” joins values, the source holds several entries; their conditions need not be identical. Identical values can stand only once.

What was measured:
[1] = system: lymph node cells; test: Lymph node cell proliferation (stimulation index) to oxLDL after oral administration; format: in vivo, mice; details: oral, LDL-RD mice immunized with OxLDL; for effect on Stimulation Index of sensitized lymph node cells in response to OxLDL / Stimulation index / reduction in Stimulation Index of OxLDL-sensitized lymph node cells: 3 doses of 100 μg; for Stimulation index: OxLDL challenge, mean ± S.E.
Procedure: Proliferation was measured by the incorporation of [^3H] thymidine into DNA during the final 12 h of incubation. The results were computed as stimulation index: the ratio of the mean cpm of the antigen to the mean background cpm obtained in the absence of the antigen.
[…] Three days after the final administration of peptides, the mice were immunized with OxLDL in incomplete Freund's adjuvant, as described in the Examples above, and lymph node cells assessed for antigen (OxLDL) stimulation of proliferation 10 days later. Proliferation was assessed by incorporation of thymidine, expressed as the Stimulation Index, as described.

[2] = system: LDL-RD mice; test: Aortic sinus lesion area after oral administration, Western diet; format: in vivo; details: for Aortic sinus lesion (μm^2): End, oral 100 μg, mean ± S.E
Procedure: Oral Tolerance: For comparison, oral tolerance to plaque-associated molecules was induced by feeding […] of antigen every other day (for a detailed account of induction of oral tolerance, see U.S. patent application Ser. No. 09/806,400 to Shoenfeld et al filed Sep. 30, 1999), in a similar regimen to the nasal tolerance. LDL-RD mice were fed by a nasogastric tube, five doses (every other day) of human or bovine β2GPI in PBS in two different concentrations (500 and 50 μg/dose).
Oral tolerance to β2GPI-derived peptides, alone or in combination was induced by feeding 100 μg of the peptides (prepared in PBS, 0.2 ml), as detailed hereinabove, every other day for a total of 5 doses of 100 μg. One day following the last feeding, all mice were switched from chow-diet to an atherogenic “Western” diet and sacrificed five weeks later.
(§1) Assessment of Atherosclerosis: Quantification of atherosclerotic fatty streak lesions was done by calculating the lesion size in the aortic sinus as previously described (16) and by calculating the lesion size in the aorta. Briefly, after perfusion with saline Tris EDTA, the heart and the aorta were removed from the animals and the peripheral fat cleaned carefully. The upper section of the heart was embedded in OCT medium (10.24% w/w polyvinyl alcohol; 4.26% w/w polyethylene glycol; 85.50% w/w nonreactive ingredients) and frozen. Every other section (10 μm thick) throughout the aortic sinus (400 μm) was taken for analysis. The distal portion of the aortic sinus was recognized by the three valve cusps that are the junctions of the aorta to the heart. […] Lesion areas per section were scored on a grid (17) by an observer counting unidentified, numbered specimens. The aorta was dissected from the heart and surrounding adventitious tissue was removed. Fixation of the aorta and Sudan staining of the vessels were performed as previously described (21).
LDL-receptor deficient (LDL-RD; LDLR −/−) mice created on a C57BL/6 background develop accelerated atherosclerosis when fed a high cholesterol diet, but not when fed a regular chow diet. In order to determine whether mucosal administration of the plaque antigen β2GPI could suppress atherogenic processes, LDL-RD mice were fed low, oral tolerance inducing doses of human and bovine β2GPI, and the assessed for alterations in response to diet.

[3] = system: LDL-RD mice; test: Aortic sinus lesion area after intraperitoneal immunization with incomplete Freund's adjuvant; format: in vivo; details: for Aortic sinus lesion (μm^2): End, intraperitoneal with incomplete Freund's adjuvant, head 100 μg, mean ± S.E
Procedure: Intraperitoneal immunization with human β2GPI-derived peptides: human β2GPI-derived peptides were dissolved in PBS and mixed with equal volumes of Freund's incomplete adjuvant. […] One week following the last immunization, the diet was switched from chow to atherogenic “Western” diet for five weeks, and then the mice were sacrificed.
as §1
Immunization with Human β2GPI-derived peptides mildly attenuates the early atherogenesis in LDL RD mice: In order to compare the effects of different modes of administration of human β2GPI-derived peptides on atherosclerosis, human β2GPI-derived peptides and human β2GPI were administered intraperitoneally (IP) with incomplete Freund's adjuvant, in LDL RD mice, effectively immunizing the mice, as opposed to the tolerance effected by mucosal administration.
Data presented in FIG. 11, and Table 7, clearly indicates a non-specific inhibitory effect of immunization (see PBS vs Non-immunized) on the size of the aortic sinus lesions in the susceptible LDL RD mice. On an average, immunization with the human β2GPI-derived peptides was equally, if not more, effective in inhibiting atherogenesis as immunization with human β2GPI, or with PBS prepared in incomplete Freund's adjuvant. In contrast to the protection achieved with mucosal administration, the different peptides S-1, S-2, S-3 and S-4 provided widely divergent, and diminished (34% or less) degrees of protection, as compared with controls.

[4] = system: LDL-RD mice; test: Aortic sinus lesion area after nasal tolerance induction, Western diet; format: in vivo
Procedure: Nasal Tolerance: Nasal tolerance was induced by intranasal administration of oxidized LDL, β2GPI, β2GPI-derived peptides or HSP65, in a total volume of 10 μl PBS. Intranasal administration was performed on mildly sedated mice (12-16 weeks old), each mouse receiving 3 doses of antigen per dose, in the indicated concentrations, every other day. Atherogenesis was induced by 5 weeks of a Western diet initiated on the day following the last intranasal administration, or assessed (in Apo E KO mice) after 8 weeks on a chow diet. Controls received equal amounts of BSA and/or PBS, as indicated, in an identical regimen. Plasma was obtained for assessment of cholesterol and triglyceride levels from all mice, and the mice were sacrificed for evaluation of atherosclerosis, as described hereinbelow, after 5 weeks Western diet, or (in Apo E KO mice) after 8 weeks on a chow diet.
Assessment of Atherosclerosis: Quantification of atherosclerotic fatty streak lesions was done by calculating the lesion size in the aortic sinus as previously described (16) and by calculating the lesion size in the aorta. Briefly, after perfusion with saline Tris EDTA, the heart and the aorta were removed from the animals and the peripheral fat cleaned carefully. The upper section of the heart was embedded in OCT medium (10.24% w/w polyvinyl alcohol; 4.26% w/w polyethylene glycol; 85.50% w/w nonreactive ingredients) and frozen. Every other section (10 μm thick) throughout the aortic sinus (400 μm) was taken for analysis. The distal portion of the aortic sinus was recognized by the three valve cusps that are the junctions of the aorta to the heart. Sections were evaluated for fatty streak lesions after processing and staining with oil-red O, according to Paigen et al (Atherosclerosis, 1987; 68:231-40). Lesion areas per section were scored on a grid (17) by an observer counting unidentified, numbered specimens. The aorta was dissected from the heart and surrounding adventitious tissue was removed. Fixation of the aorta and Sudan staining of the vessels were performed as previously described (21).
Mice were bled prior to feeding (Time 0) and at the conclusion of the experiment (End) for determination of lipid profile. Atherosclerosis was assessed in heart and aorta as described above, 8 weeks after the last feeding. Mice were weighed every 2 weeks during the experiment. All mice were fed water ad libitum and a normal chow-diet containing 4.5% fat by weight (0.02% cholesterol), up to the final antigen exposure, and then a “Western” diet until sacrifice.
Thus, nasal exposure to a low dose and an exceedingly low dose of recombinant human HSP 65 were compared for their effectiveness in suppressing atherogenesis in LDL-RD mice. 58 male 12-16 week old LDL-RD mice were divided into 4 groups.

[5] = system: ApoE-KO mice; test: Aortic sinus lesion area after oral administration in ApoE-KO mice; format: in vivo; details: oral 50 μg, 5 doses
From the text: as §1, with “Fixation of the aorta and Sudan staining of the vessels were performed as previously described (21).” left out
In order to determine the protective effect of mucosal administration of β2GPI on development of atherosclerosis, adult ApoE-KO mice were treated with oral administration of human β2GPI. […] Lesion area calculated from cryosections of the aortic sinus were compared between control untreated 20 week old mice, and mice following 16 weeks oral administration of β2GPI or PBS. […]

[6] = system: ApoE-KO mice; test: Aortic sinus lesion area after nasal administration in ApoE-KO mice; format: in vivo; details: End, nasal 10 μg/mouse, mean ± S.E
Procedure: Nasal Tolerance: Nasal tolerance was induced by intranasal administration of oxidized LDL, β2GPI, β2GPI-derived peptides or HSP65, in a total volume of 10 μl PBS. Intranasal administration was performed on mildly sedated mice (12-16 weeks old), each mouse receiving […] of antigen per dose, in the indicated concentrations, every other day. Atherogenesis was induced by 5 weeks of a Western diet initiated on the day following the last intranasal administration, or assessed (in Apo E KO mice) after 8 weeks on a chow diet. Controls received equal amounts of BSA and/or PBS, as indicated, in an identical regimen. Plasma was obtained for assessment of cholesterol and triglyceride levels from all mice, and the mice were sacrificed for evaluation of atherosclerosis, as described hereinbelow, after 5 weeks Western diet, or (in Apo E KO mice) after 8 weeks on a chow diet.
Assessment of Atherosclerosis: Quantification of atherosclerotic fatty streak lesions was done by calculating the lesion size in the aortic sinus as previously described (16) and by calculating the lesion size in the aorta. Briefly, after perfusion with saline Tris EDTA, the heart and the aorta were removed from the animals and the peripheral fat cleaned carefully. […] Lesion areas per section were scored on a grid (17) by an observer counting unidentified, numbered specimens. […]

Substance	effect on Stimulation Index of sensitized lymph node cells in response to OxLDL [1]	Stimulation index [1]	Aortic sinus lesion (μm^2) [2]	Aortic sinus lesion (μm^2) [3]	reduction in Stimulation Index of OxLDL-sensitized lymph node cells [1]	also measured
VCPFAGILENGAVRYTTFEY [Peptide S-1]	mildly reduced	246 ± 79	26750 ± 4698 μm^2	29968 ± 6032 μm^2	–	–
HSP-65: recombinant mycobacterial heat shock protein HSP 65	–	–	–	–	–	Aortic sinus lesion (μm^2) ([4]; END, intranasal 10 μg/mouse every other day for 5 days, then Western diet, mean ± S.E): 44375 ± 5437 μm^2; protection from atherogenesis ([4]; nasal, exceedingly low doses (1 μg/mouse)): approximately 70%
MLHGDKVSFFCKNKEKKCSYT [Peptide S-4]	–	17 ± 10	21125 ± 2482 μm^2	23758 ± 5767 μm^2	94%	reduction of atherosclerosis (aortic sinus lesion size) as compared with BSA- and PBS-fed controls ([2]; oral 100 μg/dose, 5 doses, Western diet 5 weeks): 61%; Aortic sinus lesion (μm^2) ([5]; End, ApoE-KO mice): 81923 ± 9191 μm^2; reduction of progression of atherosclerotic lesions compared to PBS controls ([5]; then 8 weeks of chow diet, 10-11 week-old ApoE-KO mice): > 50%; Aortic sinus lesion (μm^2) [6]: 107953 ± 10158 μm^2
ECLPQHAMFGNDTITCTTHGN [Peptide S-2]	mildly reduced	168 ± 72	23636 ± 3857 μm^2	24050 ± 7755 μm^2	–	–
GDKVSFFCKNKE [Peptide S-4-4]	–	–	–	–	–	decrease of Stimulation Index as compared with PBS-treated controls ([1]; 5 doses of 100 μg, OxLDL stimulation): ~50% and ~60%
SCKVPVKKATVVYQGERVKIQ [Peptide S-3]	–	20 ± 6	29269 ± 3307 μm^2	45329 ± 14667 μm^2	93%	anti-atherogenic effect as compared to PBS+IFA ([3]; intraperitoneal immunization): without any significant anti-atherogenic effect
